Patent US10138466B2, “Compositions and methods for differentiating stem cells into cell populations comprising beta-like cells” (REGENERATIVE MEDICAL SOLUTIONS, INC., priority 2014, dated 2018)

Experiments:
[1] = system: iPS derived beta-cell clusters; assay: Response of iPS derived beta-cell clusters to tolbutamide; type: cell-based, human
Procedure: Experiments were conducted to determine the effect of shipping induced islet cells on Transwells. Cells were differentiated according to the protocol described in Example 15. (ProgenMixIII). Total differentiation time was 27 days and the final product was islet-like-clusters (ILCs) in suspension. On the day of shipment, ILCs were counted and divided into individual mouse dosages: one mouse dosage per bottle. Cells were sent by FedEx overnight at 4° C. using cold packs. Leftover ILCs from shipment were used as controls.
Results are shown in FIGS. 36-42. iPS derived beta-cell clusters responded to glucose challenge and tolbutamide, a KATP channel closer.

differentiated cells = assay: GSIS test of differentiated cells with Warfarin in stage 6 medium; type: cell-based, human
Procedure: 300 ng/ml Noggin was added in step 4 and 10 uM ALK5i was added in step 5. In the final step, cells were transferred from transwell to suspension culture (in low attachment wells or flasks). […]
Warfarin was added at stage 6.

NKX6.1 expression = assay: EGF at stage 5 of differentiation, NKX6.1 expression; type: cell-based, human; details: Ten to fifty ng/ml EGF at stage 5
Procedure: EGF was added at stage 5.

T cell = details: high concentrations (1 μg/mL), murine models of T1D; cited from earlier work

## CCCCNC(=O)NS(=O)(=O)c1ccc(C)cc1 [tolbutamide]
[1]
  response to tolbutamide, a KATP channel closer: responded

## CC(=O)CC(c1ccccc1)c1c(O)c2ccccc2oc1=O (stereo not drawn) [Warfarin]
Differentiated cells; 2 uM Warfarin in stage 6
  SI (stimulation index) in GSIS test: 3.0
Differentiated cells; 5 uM Warfarin in stage 6
  SI (stimulation index) in GSIS test: 3.8
Differentiated cells; warfarin in the final media
  stimulation index in GSIS test: significantly increased

## EGF: growth factor added at stage 5 of differentiation
NKX6.1 expression
  NKX6.1 expression at end: enhance NKX6.1 expression

## CXCL12: immune modulating chemokine, T-cell chemorepellent
T cell
  action on T cells: T cell chemorepellent
